In one data set the test system is HeLa-P4 cell. Briefly: Viability assay (cytotoxicity, MTT). The conditions noted are these: 2 days, comparative compound table, read-out: Cytotoxicity IC50. The class given is cell-based. On the procedure: (§1) The cytotoxicity of compounds was evaluated using un-infected and infected HeLa-P4 cell and CEM leukemia cells. CEM cell were obtained from the […] (Rockville, MD). A serial dilution of drugs is done to evaluate the cytotoxicity concentration and is identified by CC50 (concentration of drug which induces 50% of cytotoxicity) The HeLa-P4 was cultured in the presence or absence of compounds for 2 days. After this time period, cells were cultivated with MTT for 3 hours, further the medium is removed. And the lysis buffer is incubated for 1 hour, followed by plate reading at 540 nm in a microplate reader.

Data set [1] has as its target T1, HBX2 HIV integrase (Human immunodeficiency virus type 1 group M subtype B, UniProt P04585). Briefly: Strand transfer assay. The class given is biochemical. Conditions: IN 200nM, substrate DNA 12.5 nM, up to 2 h at 37°C, read-out: Transfert IC50.
Protocol: The pET-15b-IN plasmid contains the cDNA encoding the HBX2 HIV integrase. His-tagged integrase protein was overexpressed in Escherichia coli BL21 (DE3) and purified under native conditions. Briefly, at an OD of 0.8, fusion protein expression was induced in bacterial cultures by the addition of IPTG (1 mM). Cultures were incubated for 3 h at 37°C, after which cells were centrifuged. The cell pellet was resuspended in ice-cold buffer A [20 mM Tris-HCl (pH 8), 1 M NaCl, 4 mM β-mercaptoethanol, and 5 mM imidazole], treated with lysozyme for 1 h on ice, and sonicated. After centrifugation (30 min at 10 000 rpm), the supernatant was filtered (0.45 µm) and incubated for at least 2 h with Ni-NTA agarose beads (Pharmacia). The beads were washed twice with 10 volumes of buffer A, 10 volumes of buffer A with 50 mM imidazole, and 10 volumes of buffer A with 100 mM imidazole. His-tagged integrase was then eluted with buffer A supplemented with 50 µM ZnS04 and 1 M imidazole. […]
Processing, strand transfer reactions were performed using U5A-U5B-2, in buffer containing 20 mM Tris (pH 7.2), 50 mM NaCl, 10 mM DTT, 10mM MgCl2. […] Gels were analyzed using a STORM Molecular Dynamics phosphorimager and quantified with Image Quant™ 4.1 software.
The nature of data set [2]: Viability assay (cytotoxicity, MTT). The conditions noted are these: human, HeLa-P4 cells, read-out: Cytoto -xicity IC50. The class given is cell-based. As to the method: as §1
The test system of data set [3] is wild type HIV-1 virus (NL 4.3 strains). Briefly: Antiviral activity assay on Hela P4 cells (beta-galactosidase, CPRG). The class given is cell-based. The conditions noted are these: Human immunodeficiency virus 1; HelaP4 cells, 48 hours incubation. As to the method: The antiviral activity is determined by infecting HelaP4 cells with a wild type HIV-1 virus (NL 4.3 strains at 3 ng) on cells in presence or absence of drugs. A serial dilution of drugs is done to evaluate the EC50. The effective concentration is the concentration of product at which virus replication is inhibited by 50 percent. After 48 hours incubation, the quantification is done by the evaluation of β-Galactosidase produced by the infected Hela P4 cells. The viral activity is evaluated by colorimetric assay, CPRG, followed by plate reading at 570 nm with a reference of 690 nm. The CPRG test is a colorimetric assay which allows to quantity the β-galactosidase produced by HIV-1 infected indicator cells (the β-Gal gene being under the control of the HIV-1 LTR).

The target of data set [4] is T1, HBX2 HIV integrase. Briefly: 3' LTR processing assay. The class given is biochemical. Conditions: 3' processing, IN 200nM, substrate DNA 12.5 nM, up to 2 h at 37°C.
Protocol: For processing, strand transfer, 100 pmol of U5B, U5B-2, respectively, were radiolabeled using T4 polynucleotide kinase and 50 µCi of [γ-32P]ATP (3000 Ci/mmol). The T4 kinase was heat inactivated, and unincorporated nucleotides were removed using a Sephadex G-10 column (GE HealthCare). NaCl was added to a final concentration of 0.1 M, and complementary unlabeled strand U5A was added to either U5B or U5B-2. The mixture was heated to 90°C for 3 min, and the DNA was annealed by slow cooling.
Processing reaction was performed using U5A-U5B, in buffer containing 20 mM Tris (pH 7.2), 50 mM NaCl, 10 mM DTT, and 10mM MgCl2. […] The reactions were stopped by phenol/chloroform extraction, and DNA products were precipitated with ethanol. The products were separated in TE containing 7 M urea and electrophoresed on an 18% denaturing acrylamide/urea gel. Gels were analyzed using a STORM Molecular Dynamics phosphorimager and quantified with Image Quant™ 4.1 software.

Take `COc1cc(/C=C/c2ccc3ccc(C(=O)O)c(O)c3n2)cc(O)c1O` [FZ41, reference compound]: the CC50 in the data set on HeLa-P4 cell was over 100 µM.
Regarding `CC(=O)c1ccc2ccc(/C=C/c3cc(O)c(O)cc3O)nc2c1O` [SQE 95, (E)-1-(8-hydroxy-2-(2,4,5-trihydroxystyryl)quinolin-7-yl)ethanone], the IC50 at HBX2 HIV integrase [1] was determined as 0.199 µM; in data set [3], 13.8 µM; at HBX2 HIV integrase [4], 0.199 µM. In addition, in data set [2], the IC50 at 2 days was 12.5 µM.

These data come from EP2149557A1, “Styrylquinolines, their process of preparation and their therapeutic uses” (BioAlliance Pharma, priority 2008, dated 2010).
